Results published in patent publication US20220081412A1, “QUINOLINYL-PYRAZINE-CARBOXAMIDE COMPOUNDS AND USES THEREOF” (The Regents of the University of Michigan, priority 2018, published 2022).

Test system: MIA PaCa-2 cells
Assay: Bru-seq analysis for nascent RNA synthesis (log2FC of genes, GSEA gene sets)
Format: cell-based, human
Settings: 4 h, MIA PaCa-2 cells
[1] = top upregulated protein-coding genes
[2] = upregulated gene sets, HALLMARK

Cc1cc(NC(=O)c2cnc(N3CCNCC3)cn2)c2ncccc2c1 [J28, N-(6-methylquinolin-8-yl)-5-(piperazin-1-yl)pyrazine-2-carboxamide]
log2FC UAP1L1 [1]: 1.26
log2FC ZC3H12A [1]: 1.27
ES AMUNDSON_GAMMA_RADIATION_RESPONSE (upregulated gene sets, C2): 0.673
ES BANDRES_RESPONSE_TO_CARMUSTIN_MGMT_48HR_DN (upregulated gene sets, C2): 0.612
ES CAMPS_COLON_CANCER_COPY_NUMBER_UP (upregulated gene sets, C2): 0.653
ES DACOSTA_UV_RESPONSE_VIA_ERCC3_UP (upregulated gene sets, C2): 0.506
ES DAIRKEE_TERT_TARGETS_UP (upregulated gene sets, C2): 0.528
ES DEBIASI_APOPTOSIS_BY_REOVIRUS_INFECTION_DN (upregulated gene sets, C2): 0.488
ES DIRMEIER_LMPl_RESPONSE_EARLY (upregulated gene sets, C2): 0.670
ES ENK_UV_RESPONSE_KERATINOCYTE_UP (upregulated gene sets, C2): 0.501
ES FERREIRA_EWINGS_SARCOMA_UNSTABLE_VS_STABLE_DN (upregulated gene sets, C2): 0.623
ES GINESTIER_BREAST_CANCER_ZNF217_AMPLIFIED_DN (upregulated gene sets, C2): 0.481
ES HORTON_SREBF_TARGETS (upregulated gene sets, C2): 0.807
ES KEGG_SYSTEMIC_LUPUS_ERYTHEMATOSUS (upregulated gene sets, C2): 0.661
ES KIM_ALL_DISORDERS_DURATION_CORR_DN (upregulated gene sets, C2): 0.615
ES LEONARD_HYPDXIA (upregulated gene sets, C2): 0.716
ES MARTENS_TRETINOIN_RESPONSE_UP (upregulated gene sets, C2): 0.552
ES NIKOLSKY_BREAST_CANCER_16P13_AMPLICON (upregulated gene sets, C2): 0.699
ES NIKOLSKY_BREAST_CANCER_16Q24_AMPLICON (upregulated gene sets, C2): 0.706
ES QI_HYPOXIA (upregulated gene sets, C2): 0.559
ES REACTOME_AMYLOIDS (upregulated gene sets, C2): 0.710
ES REACTOME_CHOLESTEROL_BIOSYNTHESIS (upregulated gene sets, C2): 0.821
ES REACTOME_PEPTIDE_CHAIN_ELONGATION (upregulated gene sets, C2): 0.564
ES REACTOME_RNA_POL_I_PROMOTER_OPENING (upregulated gene sets, C2): 0.769
ES REACTOME_RNA_POL_I_TRANSCRIPTION (upregulated gene sets, C2): 0.622
ES RICKMAN_METASTASIS_DN (upregulated gene sets, C2): 0.556
ES SCHMIDT_POR_TARGETS_IN_LIMB_BUD_UP (upregulated gene sets, C2): 0.788
NES AMUNDSON_GAMMA_RADIATION_RESPONSE (upregulated gene sets, C2): 2.280
NES BANDRES_RESPONSE_TO_CARMUSTIN_MGMT_48HR_DN (upregulated gene sets, C2): 2.308
NES CAMPS_COLON_CANCER_COPY_NUMBER_UP (upregulated gene sets, C2): 2.238
NES DACOSTA_UV_RESPONSE_VIA_ERCC3_UP (upregulated gene sets, C2): 2.272
NES DAIRKEE_TERT_TARGETS_UP (upregulated gene sets, C2): 2.400
NES DEBIASI_APOPTOSIS_BY_REOVIRUS_INFECTION_DN (upregulated gene sets, C2): 2.211
NES DIRMEIER_LMPl_RESPONSE_EARLY (upregulated gene sets, C2): 2.238
NES ENK_UV_RESPONSE_KERATINOCYTE_UP (upregulated gene sets, C2): 2.338
NES FERREIRA_EWINGS_SARCOMA_UNSTABLE_VS_STABLE_DN (upregulated gene sets, C2): 2.223
NES GINESTIER_BREAST_CANCER_ZNF217_AMPLIFIED_DN (upregulated gene sets, C2): 2.203
NES HORTON_SREBF_TARGETS (upregulated gene sets, C2): 2.353
NES KEGG_SYSTEMIC_LUPUS_ERYTHEMATOSUS (upregulated gene sets, C2): 2.294
NES KIM_ALL_DISORDERS_DURATION_CORR_DN (upregulated gene sets, C2): 2.457
NES LEONARD_HYPDXIA (upregulated gene sets, C2): 2.369
NES MARTENS_TRETINOIN_RESPONSE_UP (upregulated gene sets, C2): 2.244
NES NIKOLSKY_BREAST_CANCER_16P13_AMPLICON (upregulated gene sets, C2): 2.231
NES NIKOLSKY_BREAST_CANCER_16Q24_AMPLICON (upregulated gene sets, C2): 2.371
NES QI_HYPOXIA (upregulated gene sets, C2): 2.230
NES REACTOME_AMYLOIDS (upregulated gene sets, C2): 2.374
NES REACTOME_CHOLESTEROL_BIOSYNTHESIS (upregulated gene sets, C2): 2.387
NES REACTOME_PEPTIDE_CHAIN_ELONGATION (upregulated gene sets, C2): 2.220
NES REACTOME_RNA_POL_I_PROMOTER_OPENING (upregulated gene sets, C2): 2.411
NES REACTOME_RNA_POL_I_TRANSCRIPTION (upregulated gene sets, C2): 2.250
NES RICKMAN_METASTASIS_DN (upregulated gene sets, C2): 2.370
NES SCHMIDT_POR_TARGETS_IN_LIMB_BUD_UP (upregulated gene sets, C2): 2.303
ES HALLMARK_ADIPOGENESIS [2]: 0.383
ES HALLMARK_ANDROGEN_RESPONSE [2]: 0.356
ES HALLMARK_APICAL_JUNCTION [2]: 0.359
ES HALLMARK_APOPTOSIS [2]: 0.390
ES HALLMARK_BILE_ACID_METABOLISM [2]: 0.361
ES HALLMARK_CHOLESTEROL_HOMEOSTASIS [2]: 0.656
ES HALLMARK_COAGULATION [2]: 0.474
ES HALLMARK_DNA_REPAIR [2]: 0.336
ES HALLMARK_ESTROGEN_RESPONSE_EARLY [2]: 0.354
ES HALLMARK_ESTROGEN_RESPONSE_LATE [2]: 0.335
ES HALLMARK_FATTY_ACID_METABOLISM [2]: 0.392
ES HALLMARK_GLYCOLYSIS [2]: 0.321
ES HALLMARK_HEME_METABOLISM [2]: 0.367
ES HALLMARK_HYPOXIA [2]: 0.479
ES HALLMARK_MTORC1_SIGNALING [2]: 0.436
ES HALLMARK_MYOGENESIS [2]: 0.560
ES HALLMARK_NOTCH_SIGNALING [2]: 0.494
ES HALLMARK_OXIDATIVE_PHOSPHORYLATION [2]: 0.351
ES HALLMARK_P53_PATHWAY [2]: 0.471
ES HALLMARK_PEROXISOME [2]: 0.379
ES HALLMARK_PI3K_AKT_MTOR_SIGNALING [2]: 0.426
ES HALLMARK_UNFOLDED_PROTEIN_RESPONSE [2]: 0.433
ES HALLMARK_UV_RESPONSE_UP [2]: 0.436
ES HALLMARK_WNT_BETA_CATENIN_SIGNALING [2]: 0.481
ES HALLMARK_XENOBIOTIC_METABOLISM [2]: 0.348
NES HALLMARK_ADIPOGENESIS [2]: 1.653
NES HALLMARK_ANDROGEN_RESPONSE [2]: 1.381
NES HALLMARK_APICAL_JUNCTION [2]: 1.422
NES HALLMARK_APOPTOSIS [2]: 1.615
NES HALLMARK_BILE_ACID_METABOLISM [2]: 1.330
NES HALLMARK_CHOLESTEROL_HOMEOSTASIS [2]: 2.374
NES HALLMARK_COAGULATION [2]: 1.628
NES HALLMARK_DNA_REPAIR [2]: 1.407
NES HALLMARK_ESTROGEN_RESPONSE_EARLY [2]: 1.458
NES HALLMARK_ESTROGEN_RESPONSE_LATE [2]: 1.358
NES HALLMARK_FATTY_ACID_METABOLISM [2]: 1.605
NES HALLMARK_GLYCOLYSIS [2]: 1.363
NES HALLMARK_HEME_METABOLISM [2]: 1.548
NES HALLMARK_HYPOXIA [2]: 1.984
NES HALLMARK_MTORC1_SIGNALING [2]: 1.917
NES HALLMARK_MYOGENESIS [2]: 2.098
NES HALLMARK_NOTCH_SIGNALING [2]: 1.473
NES HALLMARK_OXIDATIVE_PHOSPHORYLATION [2]: 1.548
NES HALLMARK_P53_PATHWAY [2]: 1.986
NES HALLMARK_PEROXISOME [2]: 1.483
NES HALLMARK_PI3K_AKT_MTOR_SIGNALING [2]: 1.634
NES HALLMARK_UNFOLDED_PROTEIN_RESPONSE [2]: 1.739
NES HALLMARK_UV_RESPONSE_UP [2]: 1.773
NES HALLMARK_WNT_BETA_CATENIN_SIGNALING [2]: 1.483
NES HALLMARK_XENOBIOTIC_METABOLISM [2]: 1.415
